# Results: US12036298B2, “Skin care composition and method for treating post-acne marks” (The Procter & Gamble Company, priority 2021, dated 2024)
# What was measured:
# physchem = assay type: physicochemical; conditions: for solubility: 20 °C
# From the text: (§1) The compositions herein include one or more solubilizers and/or co-solvents to help solubilize the HCA. […] Without being limited by theory, it is believed that the decreased solubility of an HCA at lower pH is due to reduced ability of the HCA to undergo the acid dissociation that forms the conjugate base species observed at higher pH levels. At pH 7, p-coumaric acid exists at approximately 99.6% in its base form; whereas at pH 3, the conjugate base form is only present at approximately […]. As a result of its relatively poor solubility, HCAs can form crystals in an aqueous, low-pH skin care composition. The HCA crystals may impart an undesirable feel to the composition during use (e.g., a rough or grainy feel). HCA crystal formation may also lead to a decrease in the efficacy of the HCA and/or other ingredients in the composition, and/or create an undesirable consumer perception of the skin care composition or manufacturer (e.g., poor quality).
# In order to avoid the formation of HCA crystals in the present low-pH compositions, the HCA should have a solubility greater than the intrinsic solubility limit of the composition. […] In this example the HCA would likely crystalize. […] See, Bevill, et al., Polymorphic Cocrystals of Nutraceutical Compound p-Coumaric Acid with Nicotinamide: Characterization, Relative Solid-State Stability, and Conversion to Alternate Stoichiometries, Cryst. Growth Des. 2014, 14, 3, 1438-1448; 2014.
# [1] = Fraction of p-coumaric acid present as conjugate base (acid dissociation) by pH; assay type: physicochemical; conditions: pH 3
# From the text: as §1
"solubility (physchem; pH 3, aqueous buffer) [µg/mL]","solubility (physchem; pH 7, aqueous buffer) [µg/mL]",conjugate base form present [1],intrinsic solubility (physchem; pH 3.8) [µg/mL],Molecule
4000,~345000,approximately 13.4%,,O=C(O)/C=C/c1ccc(O)cc1 [p-coumaric acid]
,,,6800,hydroxycinnamic acid [HCA]
